According to EP3698777A1, “COMPOSITION FOR PREVENTING AND TREATING DEPRESSIVE AND COGNITIVE SYMPTOMS” (NEURAXPHARM ITALY S.P.A., priority 2019, dated 2020):

Key:
[1] = ORAC test (Oxygen Radical Absorbance Capacity); conditions: single ingredients taken at their percentage composition in the combination; combination = 1000 mg fish oil + 600 mg NAC + 30 mg dry saffron extract; Figure 2
Method: The ORAC method was used to assess the antioxidant activity of the substances of the invention by measuring the ability to protect the fluorescent probe (fluorescein) from damage due to peroxyl radical generated by spontaneous decomposition of AAPH (2,2'-azobis (2-amidine-propane) dihydrochloride) at 37°C, with consequent loss of fluorescence. The protective effect of the substances of the invention, alone or in combination, was measured by evaluating the longer area of time/fluorescence intensity under the curve (AUC) of the sample compared to the blank (AUC), wherein substances are not present. Trolox was the antioxidant used as the calibration standard, the ORAC results being expressed as Trolox equivalent micromol/gram of sample (i.e. µmol TE/g). […]
The ORAC test was performed by adding 150 µL of working solution with fluorescein to all the microplate wells, followed by the addition of 25 µL of diluted buffer (white), 50 µL of diluted buffer (control), 25 µL of standard (Trolox 6.25 - 50 µM) or 25 µL of the samples prepared before filling the microplate wells. […] The plate was immediately transferred to the plate reader and the fluorescence was measured every minute for 35 minutes. Fluorescence readings refer to the highest reading of the wells in which no AAPH (controls) is added.
The net AUC of the standards and samples were calculated. […]

[2] = system: Human microglia cells HMC3; test: Cell viability test (MTT assay); assay type: cell-based; conditions: 24 hours incubation, saffron extract 1 or 3 µg/mL, NAC 200 or 600 µM, fish oil 8.5 or 28.5 µg/mL, Figure 1
Method: Human microglia cells HMC3 (ATCC® CRL-3304™) were cultured in EMEM (Eagle's minimum essential medium) containing 10% FBS (fetal bovine serum) and PSG (1000 U/ml of Penicillin, 10000 ug/ml of Streptomycin, 29.2 mg/ml of L-Glutamine). The HMC3 cells were placed in 96-well plates with a density of 40,000 cells/well and let to adhere overnight in an incubator at 37°C, 5% CO2. The cells were then treated or not with different concentrations of the substances of the invention (saffron extract (1 µg/mL or 3 µg/mL), NAC (200 µM or 600 µM) or fish oil (8.5 µg/mL or 28.5 µg/mL) dissolved in EMEM with 10% FBS). After 24 hours incubation, cell viability was determined by MTT assay. Then, 10 µL of MTT (5 mg/mL solution) were added to the cells and incubated for 1 hour, followed by removal of the medium and dissolution of the crystals formed in 100 µL of isopropanol. Absorbance at 570 nm was measured with a spectrophotometer (SEAC SIRIO S) and the cell viability was expressed as a percentage of untreated control cells.

CC(=O)N[C@@H](CS)C(=O)O [NAC, N-acetylcysteine]
antioxidant activity (ORAC) [1]: 24.04 TE µmol/g | cell viability [2]: do not influence the cell viability
